# Data: paper PMC4058522, “Structural Basis for Phosphorylation-Dependent Recruitment of Tel2 to Hsp90 by Pih1” (Structure(London, England:1993), 2014)
# “And” between values parts separate entries of the source, which are not always exact repeats. Equal entries are not always repeated. Square brackets hold non-standard residues; d marks the D form. Peptide text beside a SMILES is read from it. pS = N[C@@H](COP(=O)(O)O)C(=O)O
# Tests used:
# mouse Pih1-PIH domain = target: T1, mouse Pih1-PIH domain (Mus musculus, UniProt Q9CQJ2); test: ITC, phosphopeptide binding to Pih1 PIH domain; conditions: 30°C; for Kd: 20 mM Tris pH 7.5, 5 mM NaCl, peptides at 350 μM injected into 30 μM Pih1
# T1 construct: We determined the crystal structure of the mouse PIH domain^1–200; His (N); made in house
# T1 sequence (Q9CQJ2 1-200): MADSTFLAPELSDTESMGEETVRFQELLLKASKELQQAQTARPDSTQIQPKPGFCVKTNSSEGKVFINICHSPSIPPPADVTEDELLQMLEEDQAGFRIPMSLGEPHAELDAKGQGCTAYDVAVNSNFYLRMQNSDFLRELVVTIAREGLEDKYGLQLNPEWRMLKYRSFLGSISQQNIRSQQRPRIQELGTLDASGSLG
# Experimental: (§1) Heat of interaction was measured on an ITC200 microcalorimeter (Microcal) under the same buffer conditions (20 mM Tris, pH 7.5, containing 5 mM NaCl). Aliquots of the Tel2 peptides at 350 μM were injected into 30 μM of Pih1 at 30°C. Interactions with Tah1 or Spagh/RPAP3^120–395 were performed in 10 mM Tris pH 7.5 and 5 mM NaCl at 10°C and 30°C. Aliquots of 600 μM Tah1 were injected into 40 μM of yeast Hsp90, 400 μM of SRMEEVD injected into 30 μM Tah1, 301 μM yeast Hsp90 injected into 25 μM yeast Tah1-Pih1 complex, and 400 μM SRMEEVD injected into 30 μM yeast Tah1-Pih1 complex. For Spagh/RPAP3^120–395 experiments, aliquots of 500 μM yeast Hsp90 were injected into 20 μM Spagh/RPAP3^120–395 or 2 mM […] into 80 μM Spagh/RPAP3^120–395 or mutants (N172E, N321E, and N172E-N321E). Heats of dilution were determined by diluting injectant into buffer. Data were fitted using a curve-fitting algorithm (Microcal Origin). ATPase assays were previously described ([Prodromou et al., 1999]).
# yeast Hsp90 = test: ITC, binding of Tah1 or Tah1-Pih1 complex to Hsp90 dimer; conditions: for Kd: 10 mM Tris pH 7.5, 5 mM NaCl, 600 μM Tah1 into 40 μM yeast Hsp90, or 301 μM yeast Hsp90 into 25 μM yeast Tah1-Pih1 complex; for N (sites) / ΔH / ΔS: same titrations as KD
# Experimental: as §1
compound,measurement,setting,value
CC[C@H](C)[C@H](NC(=O)[C@H](CO)NC(=O)[C@H](CC(=O)O)NC(=O)[C@H](CC(=O)O)NC(=O)[C@H](COP(=O)(O)O)NC(=O)[C@H](CC(=O)O)NC(=O)[C@H](CC(N)=O)NC(=O)[C@H](C)NC(=O)[C@@H](N)CCSC)C(=O)O [Mre11 phosphoserine peptide] (H-MAND[pS]DDSI-OH; N-terminus and C-terminus assumed),ΔH,mouse Pih1-PIH domain,-7.313 ± 0.3547 kcal/mol
same,ΔS,mouse Pih1-PIH domain,-0.36 cal/mol/deg
same,N,mouse Pih1-PIH domain; fitted,0.76 ± 0.03 sites
"CC(C)C[C@H](NC(=O)[C@H](CCC(=O)O)NC(=O)[C@H](COP(=O)(O)O)NC(=O)[C@H](CC(=O)O)NC(=O)[C@H](COP(=O)(O)O)NC(=O)CNC(=O)[C@@H](N)CCC(N)=O)C(=O)N[C@@H](CC(=O)O)C(=O)N[C@@H](CO)C(=O)N[C@@H](CC(=O)O)C(=O)N[C@@H](CC(=O)O)C(=O)N[C@@H](CCC(=O)O)C(=O)N[C@@H](Cc1ccccc1)C(=O)O [pS486, pS488-Tel2]",Kd,mouse Pih1-PIH domain,37.9 µM
CC(C)C[C@H](NC(=O)[C@H](CCC(=O)O)NC(=O)[C@H](CO)NC(=O)[C@H](CC(=O)O)NC(=O)[C@H](COP(=O)(O)O)NC(=O)CNC(=O)[C@@H](N)CCC(N)=O)C(=O)N[C@@H](CC(=O)O)C(=O)N[C@@H](CO)C(=O)N[C@@H](CC(=O)O)C(=O)N[C@@H](CC(=O)O)C(=O)N[C@@H](CCC(=O)O)C(=O)N[C@@H](Cc1ccccc1)C(=O)O [pS486-Tel2],Kd,mouse Pih1-PIH domain,115 µM and > 100 µM
"CC(C)C[C@H](NC(=O)[C@H](CCC(=O)O)NC(=O)[C@H](COP(=O)(O)O)NC(=O)[C@H](CC(=O)O)NC(=O)[C@H](CO)NC(=O)CNC(=O)[C@@H](N)CCC(N)=O)C(=O)N[C@@H](CC(=O)O)C(=O)N[C@@H](COP(=O)(O)O)C(=O)N[C@@H](CC(=O)O)C(=O)N[C@@H](CC(=O)O)C(=O)N[C@@H](CCC(=O)O)C(=O)N[C@@H](Cc1ccccc1)C(=O)O [pS488,pS492-Tel2]",Kd,mouse Pih1-PIH domain,0.17 µM
CC(C)C[C@H](NC(=O)[C@H](CCC(=O)O)NC(=O)[C@H](COP(=O)(O)O)NC(=O)[C@H](CC(=O)O)NC(=O)[C@H](CO)NC(=O)CNC(=O)[C@@H](N)CCC(N)=O)C(=O)N[C@@H](CC(=O)O)C(=O)N[C@@H](CO)C(=O)N[C@@H](CC(=O)O)C(=O)N[C@@H](CC(=O)O)C(=O)N[C@@H](CCC(=O)O)C(=O)N[C@@H](Cc1ccccc1)C(=O)O [pS488-Tel2],Kd,mouse Pih1-PIH domain,15.3 µM
CC(C)C[C@H](NC(=O)[C@H](CCC(=O)O)NC(=O)[C@H](CO)NC(=O)[C@H](CC(=O)O)NC(=O)[C@H](CO)NC(=O)CNC(=O)[C@@H](N)CCC(N)=O)C(=O)N[C@@H](CC(=O)O)C(=O)N[C@@H](COP(=O)(O)O)C(=O)N[C@@H](CC(=O)O)C(=O)N[C@@H](CC(=O)O)C(=O)N[C@@H](CCC(=O)O)C(=O)N[C@@H](Cc1ccccc1)C(=O)O [pS492-Tel2],Kd,mouse Pih1-PIH domain,0.39 µM
Tah1-Pih1 complex: pre-assembled full-length yeast Tah1-Pih1 complex,Kd,yeast Hsp90,4 µM
same,N (sites),yeast Hsp90,0.93 ± 0.04 sites
same,ΔH,yeast Hsp90,-7.595 ± 0.404 kcal/mol
same,ΔS,yeast Hsp90,-0.367 cal/mol/deg
"Tah1: yeast TPR-domain protein, Hsp90 cochaperone of the R2TP complex",Kd,yeast Hsp90,5.9 µM
same,N (sites),yeast Hsp90,0.68 ± 0.01 sites
same,ΔH,yeast Hsp90,-8.445 ± 0.1642 kcal/mol
same,ΔS,yeast Hsp90,-3.95 cal/mol/deg
